What follows are compounds tested against T1, P2X3 (UniProt P56373) (assay: P2X3 FLIPR intracellular calcium assay). Conditions: agonist at EC75, species (human or rat) not given.
T1 sequence (P56373 1-397): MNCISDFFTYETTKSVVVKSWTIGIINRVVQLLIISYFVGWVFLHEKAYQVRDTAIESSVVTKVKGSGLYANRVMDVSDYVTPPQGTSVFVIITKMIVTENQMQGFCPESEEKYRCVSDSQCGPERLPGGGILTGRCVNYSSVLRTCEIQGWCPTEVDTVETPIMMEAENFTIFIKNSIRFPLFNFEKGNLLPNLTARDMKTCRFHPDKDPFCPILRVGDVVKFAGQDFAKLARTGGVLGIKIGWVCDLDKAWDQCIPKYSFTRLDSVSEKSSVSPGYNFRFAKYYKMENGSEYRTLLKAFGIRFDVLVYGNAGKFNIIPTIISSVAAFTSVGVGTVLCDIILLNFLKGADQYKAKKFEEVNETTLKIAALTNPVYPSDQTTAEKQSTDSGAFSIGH
Type: cell-based
Summary of the method: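 Human P2X3-HEK, human P2X2/3-TRex293, rat P2X2/3-TRex293 or rat P2X3 TRex-CHO cells loaded with Calcium 4 dye (1.8 mM probenecid, pH 7.4).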

| IC50 | Structure (SMILES) |
| --- | --- |
| 1 to 100 nM | CC[C@H](NC(=O)c1cc(-n2nncc2C(F)F)c2ncc(-c3ccc(C)s3)n2c1)c1nnc[nH]1 [Example 52] |
| 1 to 100 nM | CCc1cnnn1-c1cc(C(=O)NCc2ccc(C)nc2)cn2c(-c3ccc(C)s3)cnc12 [Example 22] |
| 1 to 100 nM | C[C@H](NC(=O)c1cc(-n2nncc2C(F)F)c2ncc(-c3ccc(Cl)s3)n2c1)c1nnc[nH]1 [Example 38] |

From patent publication US10316039B2, “P2X3 and/or P2X2/3 compounds and methods” (Asana Biosciences, LLC, priority 2013, dated 2019)
